One experiment has as its target T1, COX-2 (Ovis aries, UniProt P79208).
T1 construct: purified enzyme from ewe placenta; from tissue; host or cells: ewe placenta
T1 sequence (P79208 17-603): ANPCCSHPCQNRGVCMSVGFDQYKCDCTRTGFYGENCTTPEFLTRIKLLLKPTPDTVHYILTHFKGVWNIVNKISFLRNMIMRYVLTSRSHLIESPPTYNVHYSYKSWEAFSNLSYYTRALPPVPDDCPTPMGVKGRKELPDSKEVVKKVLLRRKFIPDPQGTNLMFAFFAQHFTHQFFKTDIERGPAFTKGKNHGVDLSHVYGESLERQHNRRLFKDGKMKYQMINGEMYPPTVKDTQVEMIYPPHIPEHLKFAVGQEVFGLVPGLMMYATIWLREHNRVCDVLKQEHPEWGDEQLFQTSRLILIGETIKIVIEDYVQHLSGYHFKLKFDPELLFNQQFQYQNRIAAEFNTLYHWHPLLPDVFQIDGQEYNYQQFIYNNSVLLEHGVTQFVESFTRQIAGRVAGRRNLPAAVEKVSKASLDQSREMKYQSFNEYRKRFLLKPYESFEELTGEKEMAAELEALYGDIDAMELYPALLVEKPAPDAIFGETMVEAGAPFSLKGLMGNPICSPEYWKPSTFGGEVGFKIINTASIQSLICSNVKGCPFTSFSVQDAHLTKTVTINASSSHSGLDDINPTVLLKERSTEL
Put plainly: Inhibition of COX-2 enzymatic activity (purified enzyme from ewe placenta, PGE2 by EIA). Type of experiment: biochemical. Conditions: for IC50: 1 U COX-2, 10 min preincubation at 25° C., 4 μM arachidonic acid, 5 min, n=1 to 4; for Selectivity COX-1/COX-2 ratio: ratio of IC50 COX-1 / IC50 COX-2. Here is the method: (§1) Inhibition of the COX-1 and COX-2 enzymatic activities The molecule studied is preincubated for 10 minutes at 25° C. with 2 U of COX-1 (purified enzyme from ram seminal vesicles) or 1 U of COX-2 (purified enzyme from ewe placenta). Arachidonic acid (6 μM for COX-1,4 μM for COX-2) is added to the reaction medium and incubation is carried out for 5 minutes at 25° C. When incubation has ended, the enzymatic reaction is stopped by the addition of 1 N HCl and the PGE2 produced is determined by EIA. The results are expressed in the form of IC50, concentration in […] corresponding to 50% inhibition of the maximal enzymatic activity upon COX-1 and COX-2 (n=1 to 4 determinations).

In the next experiment the target is T2, COX-1 (Ovis aries, UniProt P05979).
T2 construct: purified enzyme from ram seminal vesicles; from tissue; host or cells: ram seminal vesicles
T2 sequence (P05979 25-600): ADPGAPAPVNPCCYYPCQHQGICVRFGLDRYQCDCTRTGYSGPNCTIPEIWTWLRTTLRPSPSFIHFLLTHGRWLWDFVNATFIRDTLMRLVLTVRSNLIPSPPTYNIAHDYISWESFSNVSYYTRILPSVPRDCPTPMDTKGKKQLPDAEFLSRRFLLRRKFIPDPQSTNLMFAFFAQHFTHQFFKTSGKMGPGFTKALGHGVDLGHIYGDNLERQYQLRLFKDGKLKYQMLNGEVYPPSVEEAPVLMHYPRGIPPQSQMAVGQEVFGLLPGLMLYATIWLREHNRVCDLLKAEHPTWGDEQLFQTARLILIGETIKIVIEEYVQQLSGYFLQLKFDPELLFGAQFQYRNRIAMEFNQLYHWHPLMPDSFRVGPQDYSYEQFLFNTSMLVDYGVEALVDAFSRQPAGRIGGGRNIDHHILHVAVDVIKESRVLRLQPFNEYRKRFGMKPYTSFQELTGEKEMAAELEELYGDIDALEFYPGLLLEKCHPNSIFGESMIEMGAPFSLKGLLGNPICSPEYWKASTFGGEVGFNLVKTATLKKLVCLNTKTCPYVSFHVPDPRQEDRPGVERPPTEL
Put plainly: Inhibition of COX-1 enzymatic activity (purified enzyme from ram seminal vesicles, PGE2 by EIA). Format: biochemical. The following applies: 2 U COX-1, 10 min preincubation at 25° C., 6 μM arachidonic acid, 5 min; n=1 to 4. Here is the method: as §1

A short description of experiment [1]: Anti-inflammatory activity, test of oedema with carrageenan in rats. Format: in vivo. The following applies: rat, oral, product 1 h before plantar injection of 2% carrageenan; dose inducing 50% of the maximal decrease of oedema volume; read-out: Anti-inflammatory Activity ID50. Here is the method: (§2) The anti-inflammatory activity of the compounds of the Examples has been evaluated according to the method of oedema with carrageenan and the analgesic activity has been evaluated according to the method of arthritis with kaolin.
Anti-inflammatory activity:
The anti-inflammatory activity is evaluated in rats by the test of oedema with carrageenan. The product is administered orally at a rate of 2.5 ml/100 g (n=6 animals per dose) 2 hours 30 minutes after a water overload taken orally (2.5 ml/100 g). One hour after administration of the product, the oedema is induced by plantar subcutaneous injection of aqueous 2% carrageenan solution. The results are expressed as ID50, dose in mg/kg, calculated by linear regression, which induces 50% of the maximal decrease of the volume of the oedema obtained from each product tested.

Experiment [2] in a line: Analgesic activity, test of arthritis with kaolin in rats. Type of experiment: in vivo. Conditions: 0.5 h; rat, oral, 30 min after intra-articular 10% kaolin; dose inducing 50% decrease of the maximal quotations of control. Here is the method: as §2
The analgesic activity is evaluated in rats by the test of arthritis with kaolin. Thirty minutes after intra-articular administration of an aqueous 10% suspension of kaolin, the product is administered orally at a rate of 1 ml/ 100 g (n=10 animals per dose). The results are expressed in the form of ED50, the dose in mg/kg which induces 50% decrease of the maximal quotations obtained in the control batch, calculated by linear regression.

A word on the IC50: it is the concentration needed to halve the response being measured. A lower IC50 goes with greater potency in that assay. As to `CS(=O)(=O)c1ccc(-c2csc(=S)n2-c2cccc(Cl)c2)cc1` [Example 9], on COX-2, the IC50 is 3.34 µM and the “Selectivity COX-1/COX-2 ratio” value is 30. At COX-1, this compound had a half-inhibitory concentration (IC50) of 100 µM.
`NS(=O)(=O)c1ccc(-c2csc(=S)n2-c2ccc(F)cc2)cc1` [Example 13]: at COX-2, the IC50 stood at 0.93 µM and the “Selectivity COX-1/COX-2 ratio” value is listed as 34. This compound showed an IC50 at COX-1 of 32 µM.
For `COc1ccc(-n2c(-c3ccc(S(N)(=O)=O)cc3)csc2=S)cc1Cl` [Example 20], in that order: 2 µM, 9 and 17.6 µM.
`NS(=O)(=O)c1ccc(-c2csc(=S)n2-c2cccc(F)c2)cc1` [Example 29]: on COX-2, the IC50 came out at 0.65 µM and the “Selectivity COX-1/COX-2 ratio” value was 396. On COX-1, this compound showed an IC50 of 258 µM.
For `NS(=O)(=O)c1ccc(-c2csc(=S)n2-c2ccc(F)c(F)c2)cc1` [Example 30], in that order: 0.21 µM, 94 and 19.8 µM.
For `NS(=O)(=O)c1ccc(-c2csc(=O)n2-c2ccc(Cl)c(Cl)c2)cc1` [Example 39] the same measures were 0.14 µM, 14 and 1.94 µM.
As for `NS(=O)(=O)c1ccc(-c2csc(=O)n2-c2cccc(F)c2)cc1` [Example 45], the IC50 turned out to be 0.24 µM against COX-2 and 335 µM against COX-1. Also, the “Selectivity COX-1/COX-2 ratio” value at COX-2 came to 1367. The ED50 in experiment [1] turned out to be 2.8 mg/kg; in experiment [2], 1.3 mg/kg.
On to `CS(=O)(=O)c1ccc(-c2csc(=O)n2-c2ccc(Cl)cc2)cc1` [Example 46], for which, at COX-2, the IC50 turned out to be 0.57 µM and the “Selectivity COX-1/COX-2 ratio” value turned out to be 286. At COX-1, this compound returned an IC50 of 163 µM.
